According to PMC12736120, “First-in-Human Phase I Clinical Trial of SLC-391, a Novel and Selective AXL Inhibitor, in Patients with Advanced Solid Tumours” (Pharmaceuticals, 2025):
Like-named read-outs stand apart in the source and are kept apart here.

Experiment: Plasma pharmacokinetics, QD and BID cohorts (non-compartmental)
Format: in vivo, human
Conditions: for Cmin, Mean / Cmin, Median / AUC / AUC(0-t) / Cmax / Tmax: plasma; for AR Factor (accumulation ratio), AUC0–12 / AR Factor (accumulation ratio), AUC0–last / AR Factor (accumulation ratio), Cmax: C1D21 vs C1D1; for AUC / AUC(0-t) / Cmax / Tmax: human, oral
Method: PK parameters were calculated by standard non-compartmental methods for SLC-391. Due to the long half-life of SLC-391 compared to the dosing interval, it was not possible to calculate a number of PK parameters, including plasma half-life and rate of elimination. Accumulation was assessed from the mean accumulation ratio factor (AR factor) calculated as the repeated dose (C1D21) mean value/single dose (C1D1) mean value for the PK parameters Cmax, AUC0–12, and AUC0–last for each dose group.
During QD dosing, blood samples for determination of SLC-391 plasma concentrations were collected predose and at 0.5, 1, 2, 3, 4, 6, 8, and 24 h after SLC-391 administration on cycle 1 day 1 (C1D1) and cycle 1 day 21 (C1D21). During BID dosing, blood samples were collected predose and at 1, 2, 3, 4, 6, 8, and 12 h after the first daily dose (before the second daily dose). Where possible, further samples were then collected at 13, 14, 22, and 24 h after the initial dose (predose C1D2). Blood samples were also collected on C1D21 (steady state) predose and at 1, 2, 3, 4, 6, 8, and 12 h after the first daily dose (before the second daily dose). Where possible, further samples were then collected at 13, 14, 22, and 24 h after the initial C1D21 dose (predose C2D1). An additional blood sample was also taken, where possible, at the end of treatment (EOT) visit.
After collection, blood samples were centrifuged, and plasma was separated and stored at −80 °C. Plasma concentrations of SLC-391 were measured by a validated analytical method involving liquid–liquid extraction followed by high-performance liquid chromatography (HPLC)–mass/mass spectroscopy assay using a Water Quattro Premier tandem quadrupole mass spectroscopy with Waters MassLynx data acquisition and processing software. Plasma analysis was carried out by Microconstants (San Diego, CA, USA) in compliance with the US FDA GLP regulations. The calibration range of the assay was from 0.100 to 100 ng/mL. Quality control samples prepared at 4 different analyte concentrations were analysed with each batch of samples against a separately prepared calibration standard. PK parameters were collected following single (day 1) and repeat dose (day 21) administration. PK parameters were summarised with appropriate descriptive statistics where possible (e.g., mean, geometric mean, median, maximum, minimum, and coefficient of variation). Descriptive PK parameters were determined by standard non-compartmental methods based on the concentration–time data of each subject. The nominal time was used for descriptive statistics calculations, and the actual sample collection times were used in PK analyses. PK analyses were performed using validated Phoenix WinNonlin Professional 8.3 (Certara, L.P., St. Louis, MO, USA).

Question: Which results are given for Nc1ncc(-c2cnn(C3CCNCC3)c2)cc1-c1nnc(CC2CC2)o1 [SLC-391, 3-(5-[cyclopropylmethyl]-1,3,4-oxadiazol-2-yl)-5-(1-[piperidin-4-yl]-1H-pyrazol-4-yl)-pyridin-2-amine]?
Answer: Cmin, Mean (25 mg, QD, C1D21): 0.0103 µg/mL; Cmin, Median (25 mg, QD, C1D21): 0.0078 µg/mL; Cmin, Mean (50 mg, QD, C1D21): 0.0349 µg/mL; Cmin, Median (50 mg, QD, C1D21): 0.0349 µg/mL; Cmin (75 mg BID, C1D21, mean, n=3, plasma): 0.1475 µg/mL; Cmin (75 mg BID, C1D21, median, n=3, plasma): 0.128 µg/mL; AR Factor (accumulation ratio), AUC0–12 (75 mg BID): 3.2; AR Factor (accumulation ratio), AUC0–last (75 mg BID): 3.2; AR Factor (accumulation ratio), Cmax (75 mg BID): 2.4; Cmin, Mean (100 mg, QD, C1D21): 0.1518 µg/mL; Cmin, Median (100 mg, QD, C1D21): 0.1518 µg/mL; Cmin (110 mg BID, C1D21, mean, n=3, plasma): 0.1456 µg/mL; Cmin (110 mg BID, C1D21, median, n=3, plasma): 0.0902 µg/mL; AR Factor (accumulation ratio), AUC0–12 (110 mg BID): 3.5; AR Factor (accumulation ratio), AUC0–last (110 mg BID): 3.7; AR Factor (accumulation ratio), Cmax (110 mg BID): 2.6; Cmin, Mean (125 mg, QD, C1D21): 0.0337 µg/mL; Cmin, Median (125 mg, QD, C1D21): 0.042 µg/mL; Cmin (150 mg BID, C1D21, mean, n=6, plasma): 0.2435 µg/mL; Cmin (150 mg BID, C1D21, median, n=6, plasma): 0.2425 µg/mL; AR Factor (accumulation ratio), AUC0–12 (150 mg BID): 4.4; AR Factor (accumulation ratio), AUC0–last (150 mg BID): 3.9; AR Factor (accumulation ratio), Cmax (150 mg BID): 2.2; Cmin, Mean (150 mg, QD, C1D21): 0.1028 µg/mL; Cmin, Median (150 mg, QD, C1D21): 0.0899 µg/mL; Cmin (200 mg BID, C1D21, mean, n=2, plasma): 0.4715 µg/mL; Cmin (200 mg BID, C1D21, median, n=2, plasma): 0.4715 µg/mL; AR Factor (accumulation ratio), AUC0–12 (200 mg BID): 8.7; AR Factor (accumulation ratio), AUC0–last (200 mg BID): 8.0; AR Factor (accumulation ratio), Cmax (200 mg BID): 5.0; AUC (25 mg, QD, C1D1, read-out: AUC0–12, Mean): 0.177 µg·h/mL; AUC (25 mg, QD, C1D1, read-out: AUC0–12, Median): 0.211 µg·h/mL; AUC(0-t) (25 mg, QD, C1D1, read-out: AUC0–last, Mean): 0.27 µg·h/mL; AUC(0-t) (25 mg, QD, C1D1, read-out: AUC0–last, Median): 0.302 µg·h/mL; Cmax (25 mg, QD, C1D1, read-out: Cmax, Mean): 0.0325 µg/mL; Cmax (25 mg, QD, C1D1, read-out: Cmax, Median): 0.0396 µg/mL; Tmax (25 mg, QD, C1D1, read-out: Tmax, Mean): 2 h; Tmax (25 mg, QD, C1D1, read-out: Tmax, Median): 2 h; AUC (25 mg, QD, C1D21, read-out: AUC0–12, Mean): 0.286 µg·h/mL; AUC (25 mg, QD, C1D21, read-out: AUC0–12, Median): 0.232 µg·h/mL; AUC(0-t) (25 mg, QD, C1D21, read-out: AUC0–last, Mean): 0.461 µg·h/mL; AUC(0-t) (25 mg, QD, C1D21, read-out: AUC0–last, Median): 0.366 µg·h/mL; Cmax (25 mg, QD, C1D21, read-out: Cmax, Mean): 0.0419 µg/mL; Cmax (25 mg, QD, C1D21, read-out: Cmax, Median): 0.0412 µg/mL; Tmax (25 mg, QD, C1D21, read-out: Tmax, Mean): 2.7 h; Tmax (25 mg, QD, C1D21, read-out: Tmax, Median): 2.1 h; AUC (50 mg, QD, C1D1, read-out: AUC0–12, Mean): 0.382 µg·h/mL; AUC (50 mg, QD, C1D1, read-out: AUC0–12, Median): 0.413 µg·h/mL; AUC(0-t) (50 mg, QD, C1D1, read-out: AUC0–last, Mean): 0.594 µg·h/mL; AUC(0-t) (50 mg, QD, C1D1, read-out: AUC0–last, Median): 0.643 µg·h/mL; Cmax (50 mg, QD, C1D1, read-out: Cmax, Mean): 0.0729 µg/mL; Cmax (50 mg, QD, C1D1, read-out: Cmax, Median): 0.0658 µg/mL; Tmax (50 mg, QD, C1D1, read-out: Tmax, Mean): 2 h; Tmax (50 mg, QD, C1D1, read-out: Tmax, Median): 1 h; AUC (50 mg, QD, C1D21, read-out: AUC0–12, Mean): 0.706 µg·h/mL; AUC (50 mg, QD, C1D21, read-out: AUC0–12, Median): 0.706 µg·h/mL; AUC(0-t) (50 mg, QD, C1D21, read-out: AUC0–last, Mean): 1.21 µg·h/mL; AUC(0-t) (50 mg, QD, C1D21, read-out: AUC0–last, Median): 1.21 µg·h/mL; Cmax (50 mg, QD, C1D21, read-out: Cmax, Mean): 0.0992 µg/mL; Cmax (50 mg, QD, C1D21, read-out: Cmax, Median): 0.0992 µg/mL; Tmax (50 mg, QD, C1D21, read-out: Tmax, Mean): 1.5 h; Tmax (50 mg, QD, C1D21, read-out: Tmax, Median): 1.5 h; AUC (75 mg, 75 mg BID, C1D1, mean, n=3, plasma, read-out: AUC0–12): 0.706 µg·h/mL; AUC(0-t) (75 mg, 75 mg BID, C1D1, mean, n=3, plasma, read-out: AUC0–last): 1.39 µg·h/mL; Cmax (75 mg, 75 mg BID, C1D1, mean, n=3, plasma, read-out: Cmax): 0.114 µg/mL; Tmax (75 mg, 75 mg BID, C1D1, mean, n=3, plasma, read-out: Tmax): 9.4 h; AUC (75 mg, 75 mg BID, C1D1, median, n=3, plasma, read-out: AUC0–12): 0.541 µg·h/mL; AUC(0-t) (75 mg, 75 mg BID, C1D1, median, n=3, plasma, read-out: AUC0–last): 1.11 µg·h/mL; Cmax (75 mg, 75 mg BID, C1D1, median, n=3, plasma, read-out: Cmax): 0.0934 µg/mL; Tmax (75 mg, 75 mg BID, C1D1, median, n=3, plasma, read-out: Tmax): 3 h; AUC (75 mg, 75 mg BID, C1D21, mean, n=3, plasma, read-out: AUC0–12): 2.29 µg·h/mL; AUC(0-t) (75 mg, 75 mg BID, C1D21, mean, n=3, plasma, read-out: AUC0–last): 4.42 µg·h/mL; Cmax (75 mg, 75 mg BID, C1D21, mean, n=3, plasma, read-out: Cmax): 0.267 µg/mL; Tmax (75 mg, 75 mg BID, C1D21, mean, n=3, plasma, read-out: Tmax): 3 h; AUC (75 mg, 75 mg BID, C1D21, median, n=3, plasma, read-out: AUC0–12): 2.29 µg·h/mL; AUC(0-t) (75 mg, 75 mg BID, C1D21, median, n=3, plasma, read-out: AUC0–last): 4.3 µg·h/mL; Cmax (75 mg, 75 mg BID, C1D21, median, n=3, plasma, read-out: Cmax): 0.331 µg/mL; Tmax (75 mg, 75 mg BID, C1D21, median, n=3, plasma, read-out: Tmax): 1.9 h; AUC (100 mg, QD, C1D1, n 1, read-out: AUC0–12, Mean): 1.35 µg·h/mL; AUC (100 mg, QD, C1D1, n 1, read-out: AUC0–12, Median): 1.35 µg·h/mL; AUC(0-t) (100 mg, QD, C1D1, read-out: AUC0–last, Mean): 0.875 µg·h/mL; AUC(0-t) (100 mg, QD, C1D1, read-out: AUC0–last, Median): 0.46 µg·h/mL; Cmax (100 mg, QD, C1D1, read-out: Cmax, Mean): 0.141 µg/mL; Cmax (100 mg, QD, C1D1, read-out: Cmax, Median): 0.112 µg/mL; Tmax (100 mg, QD, C1D1, read-out: Tmax, Mean): 0.8 h; Tmax (100 mg, QD, C1D1, read-out: Tmax, Median): 0.9 h; AUC(0-t) (100 mg, QD, C1D21, read-out: AUC0–last, Mean): 1.8 µg·h/mL; AUC(0-t) (100 mg, QD, C1D21, read-out: AUC0–last, Median): 1.8 µg·h/mL; Cmax (100 mg, QD, C1D21, read-out: Cmax, Mean): 0.436 µg/mL; Cmax (100 mg, QD, C1D21, read-out: Cmax, Median): 0.436 µg/mL; Tmax (100 mg, QD, C1D21, read-out: Tmax, Mean): 1.9 h; Tmax (100 mg, QD, C1D21, read-out: Tmax, Median): 1.9 h; AUC (110 mg, 110 mg BID, C1D1, mean, n=3, plasma, read-out: AUC0–12): 0.639 µg·h/mL; AUC(0-t) (110 mg, 110 mg BID, C1D1, mean, n=3, plasma, read-out: AUC0–last): 1.17 µg·h/mL; Cmax (110 mg, 110 mg BID, C1D1, mean, n=3, plasma, read-out: Cmax): 0.0952 µg/mL; Tmax (110 mg, 110 mg BID, C1D1, mean, n=3, plasma, read-out: Tmax): 3 h; AUC (110 mg, 110 mg BID, C1D1, median, n=3, plasma, read-out: AUC0–12): 0.593 µg·h/mL; AUC(0-t) (110 mg, 110 mg BID, C1D1, median, n=3, plasma, read-out: AUC0–last): 1.13 µg·h/mL
